Laboratory results reported in ChEMBL document CHEMBL1129696, “5- and 7-oxa trinems: their synthesis and biological evaluation” (1996).
In brackets after ≈: the same amount, converted by molar mass.

Columns and labels:
Type in all cases: functional
Escherichia coli [1] = experiment: In vitro antibacterial activity agains Escherichia coli 1852
Enterococcus faecalis = experiment: In vitro antibacterial activity against Enterococcus faecalis 850
Staphylococcus aureus = experiment: In vitro antibacterial activity against Staphylococcus aureus 853
Streptococcus pneumoniae = experiment: In vitro antibacterial activity against Streptococcus pneumoniae 3512
Bacteroides fragilis = experiment: In vitro antibacterial activity against Bacteroides fragilis 2017
Clostridium perfringens = experiment: In vitro antibacterial activity against Clostridium perfringens 615
Escherichia coli [2] = experiment: In vitro antibacterial activity against Escherichia coli 1850
Escherichia coli [3] = experiment: In vitro antibacterial activity against Escherichia coli 1850.

`C[C@@H](O)[C@H]1C(=O)N2C(C(=O)[O-])=C3COCC[C@H]3[C@H]12.[K+]` was tested, and the MIC (Escherichia coli [1]) was 4 µg/mL, the MIC (Enterococcus faecalis) was 32 µg/mL and the MIC (Staphylococcus aureus) was 2 µg/mL. It also gave an MIC (Streptococcus pneumoniae) of 0.1 µg/mL, an MIC (Bacteroides fragilis) of 0.1 µg/mL and an MIC (Clostridium perfringens) of 2 µg/mL. For the same molecule, the MIC (Escherichia coli [2]) was 2 µg/mL.
In the case of `C[C@@H](O)[C@H]1C(=O)N2C(C(=O)[O-])=C3CCCO[C@H]3[C@H]12.[K+]`, the MIC (Escherichia coli [1]) is reported as 4 µg/mL, the MIC (Enterococcus faecalis) is reported as 16 µg/mL and the MIC (Staphylococcus aureus) is reported as 1 µg/mL. The MIC (Streptococcus pneumoniae) was 0.2 µg/mL, the MIC (Bacteroides fragilis) was 0.2 µg/mL and the MIC (Clostridium perfringens) was 1 µg/mL. For the same molecule, the MIC (Escherichia coli [2]) was 2 µg/mL.
Work on `C[C@@H](O)[C@H]1C(=O)N2C(C(=O)[O-])=C3CCCO[C@@H]3[C@H]12.[K+]` yielded an MIC (Escherichia coli [1]) of 1 µg/mL, an MIC (Enterococcus faecalis) of 1 µg/mL and an MIC (Staphylococcus aureus) of 0.5 µg/mL. For the same molecule, the MIC (Streptococcus pneumoniae) was 0.06 µg/mL, the MIC (Bacteroides fragilis) was 0.1 µg/mL and the MIC (Clostridium perfringens) was 0.06 µg/mL. It also gave an MIC (Escherichia coli [2]) of 1 µg/mL.
With `CO[C@H]1CCC[C@H]2C1=C(C(=O)O)N1C(=O)[C@H]([C@@H](C)O)[C@@H]21` [SANFETRINEM] the MIC (Escherichia coli [1]) was 0.5 µg/mL (≈ 1.78 µM), the MIC (Enterococcus faecalis) was 1 µg/mL (≈ 3.55 µM) and the MIC (Staphylococcus aureus) was 0.2 µg/mL (≈ 0.711 µM). For the same molecule, the MIC (Streptococcus pneumoniae) was < 0.01 µg/mL, the MIC (Bacteroides fragilis) was 0.06 µg/mL (≈ 0.213 µM) and the MIC (Clostridium perfringens) was 0.03 µg/mL (≈ 0.107 µM). For the same molecule, the MIC (Escherichia coli [2]) was 0.5 µg/mL (≈ 1.78 µM).
Work on `C[C@@H](O)[C@H]1C(=O)N2C(C(=O)[O-])=C3CCCC[C@@H]3[C@H]12.[K+]` yielded an MIC (Escherichia coli [1]) of 1 µg/mL, an MIC (Enterococcus faecalis) of 8 µg/mL and an MIC (Staphylococcus aureus) of 1 µg/mL. It also gave an MIC (Streptococcus pneumoniae) of 0.06 µg/mL, an MIC (Bacteroides fragilis) of 1 µg/mL and an MIC (Clostridium perfringens) of 0.1 µg/mL. It also gave an MIC (Escherichia coli [2]) of 1 µg/mL.
`C[C@@H](O)[C@H]1C(=O)N2C(C(=O)[O-])=C3COCC[C@@H]3[C@H]12.[K+]` was tested, and the MIC (Escherichia coli [1]) was 0.5 µg/mL, the MIC (Enterococcus faecalis) was 8 µg/mL and the MIC (Staphylococcus aureus) was 0.5 µg/mL. It also gave an MIC (Streptococcus pneumoniae) of 0.06 µg/mL, an MIC (Bacteroides fragilis) of 0.2 µg/mL and an MIC (Clostridium perfringens) of 0.5 µg/mL. The MIC (Escherichia coli [2]) was 0.5 µg/mL.
`C[C@@H](O)[C@H]1C(=O)N2C(C(=O)[O-])=C3CCCC[C@H]3[C@H]12.[K+]` showed an MIC (Escherichia coli [1]) of 2 µg/mL, an MIC (Enterococcus faecalis) of 16 µg/mL and an MIC (Staphylococcus aureus) of 1 µg/mL. For the same molecule, the MIC (Escherichia coli [3]) was 2 µg/mL, the MIC (Streptococcus pneumoniae) was 0.5 µg/mL and the MIC (Bacteroides fragilis) was 0.5 µg/mL. The MIC (Clostridium perfringens) was 1 µg/mL.
